Key:
KCC2 mRNA = assay: Secondary screen: KCC2 RT-qPCR in primary mouse neurons; assay type: cell-based; conditions: Natural Compounds; rank score
Protocol: The primary screen encompassed three levels of LUC measurements. The first level of screening yielded a total of 137 compounds with cut-off RLU>125% LUC activity. These 137 compounds were subject to second round of screening, which was carried out in duplicate independent assays to yield the top 103 compounds sorted for highest RLU. The 103 compounds were then subjected to a third round of screening carried out in duplicate independent assays to yield the top 40 compounds which were again ranked. The best 22 of these 40 compounds (ranked for highest RLU activity) were subjected to secondary screening: Cultured neurons were treated with the 22 compounds; RT-qPCR and Clomeleon imaging methodologies (Yeo et al., 2009, J Neurosci 29:14652-14662) were used to determine effects of compounds on KCC2 mRNA expression and [Cl—]i, respectively. Each compound was ranked based on composite scores from primary and secondary screening.
Total RNA was isolated from cultured cell samples using Directzol RNA miniprep kit (ZymoResearch). The protocol includes DNAse digestion to exclude genomic DNA from preparations. Total RNA (1 μg) was reverse transcribed using oligo primers (dT) and SuperScriptIII first-strand synthesis kit (Invitrogen). Gene expression was assessed by quantitative real-time PCR using 2×SYBR Green Master Mix (Qiagen) and a three-step cycling protocol (anneal at 60° C./elongate at 72° C., denature at 95° C.). Specificity of primers was verified by dissociation/melting curve for the amplicons when using SYBR Green as a detector. All reactions were performed in triplicates. The amount of target messenger RNA (mRNA) in the experimental group relative to that in the control was determined from the resulting fluorescence and threshold values (Ct) using the ΔΔCt method. βIII-tubulin was used as housekeeping gene.
oligodT-initiated reverse transcription of 1 μg total RNA, DNA-se treated, was subjected to RT-qPCR using primers specific for KCC2 for rat and KCC2 for human sequences, normalized for neuronal βIII-tubulin, as previously described (Yeo et al., 2009, J Neurosci 29:14652-14662). For cultured neurons, total RNA was extracted from pelleted cells, and for spinal cord tissue it was extracted from microdissected lumbar spinal cord dorsal horn.
To identify KCC2 gene expression enhancing compounds, cultured primary cortical neurons were cultured from KCC2-luciferase(LUC)-knockin (KCC2-LUCki) mice (Liedtke et al., 2013, Small 9:1066-1075; Yeo et al., 2013, Proc Natl Acad Sci USA 110:4315-4320) and used LUC metrics as readout for activity of the proximal KCC2 promoter (2.5 kB (Yeo et al., 2009, J Neurosci 29:14652-14662)), which drives LUC in this mouse transgenic line. A Z′ factor of 0.94 was obtained. This strategy will not select for long-range enhancers of KCC2 gene expression that act outside the 2.5 kB core KCC2 promoter. 1057 compounds, contained in two NCI libraries (FIG. 1), related to inhibition of growth of malignantly transformed cells were screened. Iterative screening followed by measurements of KCC2 mRNA (RT-qPCR) and intracellular chloride ([Cl—]i), using clomeleon chloride indicator protein (Kuner and Augustine, 2000, Neuron 27:447-459; Yeo et al., 2009, J Neurosci 29:14652-14662), led to decreasing numbers of confirmed and re-confirmed hits, and 4 “winner” compounds were selected (FIG. 1 and Table 3).

[1] = system: mouse KCC2 promoter constructs; assay: KCC2 promoter luciferase reporter assay in N2a cells; assay type: cell-based; conditions: KP 400 nM
Excerpt: A fragment of the mouse KCC2 gene promoter (position −2052 […]) was amplified from genomic DNA prepared from cultured mouse primary glial cells. A 2.5 kb PCR fragment was cloned into the pGL4.17-Basic Vector (Promega) to generate the KCC2 promoter reporter construct. TCF and Kaiso binding sites were identified in this fragment. Using wild-type construct pGL4.17-KCC2 as a template, site-directed mutagenesis using Phusion DNA Polymerase enzyme (Thermo Fisher F549L) in conjunction with complementary primers bearing the specific mutation were used to mutate the Kaiso and TCF DNA-binding sites. PCR was followed by Dpn1 enzyme digestion to remove parental plasmid DNA. All constructs were verified by sequencing.
N2a cells were grown to 90% confluency in 24-well dishes in 0.4 mL of medium (DMEM, 2% Fetal Bovine Serum, 2 mM glutamine, 1% Non-essential amino acids, and 1% Penicillin/Streptomycin). Cells were transiently transfected using TurboFect reagent (Thermo Fisher R0531), with 500 ng of the pGL4.17-constructs plus 20 ng of the control Renilla plasmid (Promega, E2231) to normalize for transfection efficiency. Twenty-four hours after transfection, luminescence was measured using the Dual-Luciferase® Reporter Assay System (Promega) in a microplate luminometer (Veritas, Turner Biosystems). Mutant promoters were compared to WT, and the response of the respective promoter to KP (400 nM) was measured. Three independent transfection experiments were carried out and LUC assays were done in triplicates for each transfection. RLU is expressed as firefly luciferase activity relative to Renilla LUC activity.
Promoter expression constructs were built with rationally-targeted deletions to interrogate the effects of the Kaiso- and TCF-binding sites on activity of the KCC2 promoter and to determine if this activity was regulated by KP. For ease of transfection, key to this method, N2a neural cells were again used. The 5′ and 3′ delta-cat Kaiso binding sites functioned in repressive and enhancing manners, respectively (FIG. 11D).

With `O=C1Cc2c([nH]c3ccc(Br)cc23)-c2ccccc2N1` [kenpaullone, 9-bromo-7,12-dihydro-indolo [3,2-d] [1]benzazepin-6(5H)-one] the “RT-QPCR Score (triplicates)” value (KCC2 mRNA) was 2, the “KCC2 promoter LUC activity” value ([1]; Kaiso1 deletion (ΔK1) construct) was “significantly enhanced further” and the “KCC2 promoter LUC activity” value ([1]; TCF deletion constructs of FIG. 11C) was “did not increase”. The “KCC2 promoter LUC activity” value ([1]; deletion of both Kaiso sites) was “non-responsiveness” and the “KCC2 promoter LUC activity” value ([1]; triple-deletion of both Kaiso sites and TCF site) was “completely non-responsive”.
